The values below come from article PMC7904806, “A phase I dose-finding, pharmacokinetics and genotyping study of olaparib and lurbinectedin in patients with advanced solid tumors” (Scientific Reports, 2021).

A word on the IC50: it is the concentration that inhibits the measured activity by half. The half-life is the time in which the quantity being followed falls by half.

Each structure is given as a SMILES string. “And” between values parts separate entries of the source, which are not always exact repeats. Identical values can stand only once. “Also recorded” adds a separate entry of the source. Like-named read-outs stand apart in the source and are kept apart here.

The nature of data set [1]: Pharmacokinetics in patients, cycle 1 (noncompartmental analysis). The class given is in vivo, human. The conditions noted are these: for Drug–drug interactions (DDI): combination of lurbinectedin and olaparib. An excerpt: Blood samples for pharmacokinetic (PK) analyses were collected during cycle 1, with a schedule of ten samples (Supplementary Table 5).
Safety and efficacy population comprised all patients who received at least one dose of the study treatment. Continuous variables were presented with summary statistics and qualitative variables with the absolute and relative frequencies. In those cases where it was necessary to ensure the normality of the continuous parameters, log transformation (or other suitable transformation) was performed. Analysis of Variance (ANOVA) was used for exploratory group comparisons. If Gaussian distribution assumptions (Shapiro–Wilks test) were not met, equivalent nonparametric methods as the Kruskal–Wallis, were performed. Chi-squared or Fisher exact test were used for qualitative parameters. To explore the change in value of a variable, between baseline and week 12 or any other time point, a t-test for paired data or the Wilcoxon signed-rank test was performed, based on the distribution followed by the corresponding variable. All statistical analyses were performed using IBM SPSS Statistics 22 and R v.3.4.3. PK analysis was performed according to the NCA. […] The dose-exposure relationships for Cmax and AUC for lurbinectedin and AUC 0–6 for olaparib will be evaluated and any potential PK interaction between olaparib and lurbinectedin were also explored. The population pharmacokinetics (PopPK) models for each drug was used to detect potential drug–drug interactions based on single agent PopPK models. The potential influence on selected PK parameters of selected demographic and clinical dichotomous variables (gender, laboratory test results above/below selected cutoff values, etc.) was evaluated by Student’s test Mann–Whitney’s U test as appropriate. For multinomial variables, analysis of variance was used. For selected continuous demographic and clinical variables, relationships with selected PK parameters were graphically explored and assessed using correlation and regression methods.
Supplementary Table 5. Sampling schedule for the determination of lurbinectedin and
Sample Time relative to the Sampling times Sampling times PK
number lurbinectedin for lurbinectedin for olaparib window
#1 1 0 min Pre-infusion Pre-dose -10 min to SOI
#2 1 0.5 h 30 min before EOI 30 min after 1st administration ±2 min
#3 1 0.92 h 5 min before EOI 55 min after 1st administration ±2 min
#4 1 1.5 h 30 min after EOI 1.5 h after 1st administration ±5 min
#5 1 3 h 2 h after EOI 3 h after 1st administration ±10 min
#6 1 4.5 h 3.5 h after EOI 4.5 h after 1st administration ±10 min
#7 1 6 h 5 h after EOI 6 h after 1st administration ±10 min
2 24 h after 1st administration
#8 24 h 23 h after EOI (immediately before 3rd olaparib administration) ±2 h
4 72 h after 1st administration
#9 † 72 h 71 h after EOI (immediately before 7th olaparib administration) +24 / -2 h […]

For data set [2] the following is noted: single-agent, cited from earlier work.
Data set [3] relates to ovarian cancer cell lines. Put plainly: MTT cytotoxicity assay, panel of ovarian cancer cell lines. Type of data set: cell-based. How it is done: (§1) The following Ovarian Cancer Cell lines were analyzed: TOV112, SKOV-3, OVCAR-3, PEO1, PEO6, PEO4, A2780 and A2780-Cis (an A2780 variant made resistant to platinum), representing the main different molecular subtypes of ovarian cancer (Supplementary Table 6). These cell lines were maintained at 37 °C in 5% CO2 in RPMI‐1640 medium (Sigma‐Aldrich Co.) and DMEM medium (Sigma‐Aldrich Co.), all supplemented with 10% heat‐inactivated FBS (Sigma‐Aldrich Co.). To verify the genetic profile of the cell lines, a characterization of microsatellite markers was carried out (AmpFlSTR Identifiler PCR Amplification Kit, AppliedBiosystem).
(§2) For the pharmacological characterization of the different cell lines, dose–response curves were obtained for lurbinectedin (range between 25 and 0.0343 μM and 100–1.5625 μM dilution factor 3 and 2, respectively) and olaparib (range between […]). […] Cytotoxicity assay was assessed performing six technical replicates and three biological replicates per each curve point.
Before starting cytotoxicity assays to characterize the chemosensitivity of cell lines to study drugs, different time of exposures and doses were tested in order to establish the most suitable working conditions. […] Regarding olaparib, exposure times were established at 72, 96 and 120 h, measuring absorbance directly after treatment exposure (Supplementary Fig. 10). […]
(In general: Formazan colour is commonly taken as a measure of viable cells.)

For data set [4] the following is noted: cited from earlier work.
The subject of data set [5] is A2780. Put plainly: MTT cytotoxicity assay, A2780. Type of data set: cell-based. To be noted: A2780, lowest IC50 of the panel. As to the method:
as §1, §2
(§3) For MTT assay, cells were plated and after 24 h of incubation, treated with the drug (lurbinectedin/olaparib) either as a single agent or with both agents simultaneously. […] Finally, the absorbance was measured at 570 nm.

The test system of data set [6] is A2780 CIS. Put plainly: MTT cytotoxicity assay, A2780 CIS. Type of data set: cell-based. To be noted: A2780cis, lowest IC50 of the panel. As to the method:
as §1, §2, §3

On to `COc1ccc2[nH]c3c(c2c1)CCN[C@]31CS[C@@H]2c3c(OC(C)=O)c(C)c4c(c3[C@H](COC1=O)N1[C@@H]2[C@H]2c3c(cc(C)c(OC)c3O)C[C@@H]([C@@H]1O)N2C)OCO4` [lurbinectedin], for which the “Drug–drug interactions (DDI)” value in data set [1] was “did not observe any potential drug–drug interactions; also recorded: no drug interactions”. Moreover, in data set [1] (highest olaparib DL (250 mg BID)), the “Mean lurbinectedin CL” value was 12 L/h. Moreover, the figures for the “Lurbinectedin CL variability” value in data set [1] (lurbinectedin 1 mg/m^2), in data set [1] (lurbinectedin 1.5 mg/m^2) and in data set [1] (lurbinectedin 2 mg/m^2) were 92%, 36% and 52%, respectively. Further, in data set [1] (lurbinectedin 1 mg/m^2), the “Lurbinectedin CL, one patient with high CL” value worked out at 37 L/h. The “Lurbinectedin CL variabilities” value in data set [1] (olaparib 200 and 250 mg BID, lurbinectedin 1.5 and 2 mg/m^2) is reported as approximately 36%. The “Mean lurbinectedin clearance (CL)” value in data set [1] (three lurbinectedin DLs, with olaparib) is reported as approximately 12 L/h. The “Grade 3–4 neutropenia” value in data set [2] (dose adjusted to body surface area ref 23) is on record as 57%; in data set [2] (flat dose ref 21), “up to 85%”. Besides, in data set [3] (1 h exposure, viability at 72 h), the “IC50 reached after 1 h exposure” value is “not enough to reach the IC50 value”. Besides, the half-inhibitory concentration (IC50) was less than 1 nM in data set [3] (all cell lines except OVCAR3, 72 h exposure) and 0.46 nM in data set [5]. For the same molecule, the “Mean lurbinectedin CL as single-agent” value in data set [4] (single-agent ref 25) is on record as 12 L/h.
On to `O=C(c1cc(Cc2n[nH]c(=O)c3ccccc23)ccc1F)N1CCN(C(=O)C2CC2)CC1` [olaparib], for which the “Olaparib PK parameters by lurbinectedin DL” value in data set [1] (NCA) was “did not show differences”. Besides, the “Drug–drug interactions (DDI)” value in data set [1] is on record as “no drug interactions”. The clearance in data set [1] (human, blood, oral, olaparib 100 mg, read-out: Olaparib CL (converted)) was 50 mL/min; in data set [1] (human, blood, oral, olaparib DLs above 100 mg, read-out: Olaparib CL (converted)) it was 100 to 167 mL/min; in data set [1] (human, in vivo, oral, this trial, read-out: Mean olaparib total body clearance (converted)) it was 117 mL/min. The half-life in data set [1] (human, in vivo, oral, this trial, NCA samples until 6 h, read-out: Olaparib terminal half-life (converted)) was 3 h. Further, the IC50 in data set [6] was 2900 nM. The “Olaparib total body clearance” value in data set [4] (literature ref 31) is 5.1 L/h and 8.6 L/h.
